From patent publication US10106552B2, “Compounds inhibiting eukaryotic elongation factor 2 kinase activity” (Longevica Pharmaceuticals, Inc., priority 2013, dated 2018)

Target: recombinant eEF2K (Homo sapiens (Human), UniProt O00418)
Assay: eEF2K Kinase-Glo luminescent kinase assay (ATP consumption, peptide substrate)
Format: biochemical
Conditions: average of two to four separate experimental measurements, each the average of three replicates
Description: The following compounds were synthesized using the general methods described above. In the table below, IC50 values are in μM and are the average of two to four separate experimental measurements, each consisting in turn of the average of three replicates. IC50 values were calculated using the methods as described in Example 2. MW was determined by mass spectroscopy analysis, and is expressed as M+1.
To determine the IC50 of compounds of the invention, recombinant eEF2K was diluted in an assay buffer in the presence of calmodulin, a calcium-binding messenger protein expressed in eukaryotic cells, and incubated with peptide substrate Ac-RKKYKFNEDTERRRFL in the presence of Adenosine-5′-triphosphate (ATP) and the test compound. The peptide substrate is efficiently and specifically phosphorylated by eEF2K at a single substrate concentration of 100 μM. Using this peptide, eEF2K activity can be quantitatively determined using a Kinase-Glo® luminescent kinase assay kit (Promega) that measures ATP consumption by EF2K during phosphorylation of the substrate. ATP conversion was recorded using Perkin-Elmer Victor Luminometer. Data was plotted using GraphPad software and IC50 was calculated using 3-parameter sigmoidal curve fit.

SMILES	IC50 [µM]
CC1(C)C/C(=C\c2ccc(Cl)o2)c2nc3sc(C(N)=O)c(N)c3c(-c3ccc(Cl)o3)c2C1 [Compound 1, 3-Amino-4-(5-chloro-furan-2-yl)-8-(5-chloro-furan-2-ylmethylene)-6,6-dimethyl-5,6,7,8-tetrahydro-thieno[2,3-b]quinoline-2-carboxylic acid amide]	2.7
CC1(C)CCc2nc3sc(C(N)=O)c(N)c3c(-c3ccc(Cl)o3)c2C1 [Compound 2, 3-Amino-4-(5-chloro-furan-2-yl)-6,6-dimethyl-5,6,7,8-tetrahydro-thieno[2,3-b]quinoline-2-carboxylic acid amide]	1.1
NC(=O)c1sc2nc3c(c(-c4ccc(Cl)o4)c2c1N)CC(c1ccccc1)C/C3=C\c1ccc(Cl)o1 (stereo not drawn) [Compound 3, 3-Amino-4-(5-chloro-furan-2-yl)-8-(5-chloro-furan-2-ylmethylene)-6-phenyl-5,6,7,8-tetrahydro-thieno[2,3-b]quinoline-2-carboxylic acid amide]	10000
NC(=O)c1sc2nc3c(c(-c4ccc(Cl)o4)c2c1N)CC(c1ccccc1)CC3 (stereo not drawn) [Compound 4, 3-Amino-4-(5-chloro-furan-2-yl)-6-phenyl-5,6,7,8-tetrahydro-thieno[2,3-b]quinoline-2-carboxylic acid amide]	10000
CCCC1C/C(=C\c2ccc(Cl)o2)c2nc3sc(C(N)=O)c(N)c3c(-c3ccc(Cl)o3)c2C1 (stereo not drawn) [Compound 5, 3-Amino-4-(5-chloro-furan-2-yl)-8-(5-chloro-furan-2-ylmethylene)-6-propyl-5,6,7,8-tetrahydro-thieno[2,3-b]quinoline-2-carboxylic acid amide]	6
CC1(C)CCc2nc3sc(C(N)=O)c(N)c3c(-c3ccco3)c2C1 [Compound 6, 3-Amino-4-furan-2-yl-6,6-dimethyl-5,6,7,8-tetrahydro-thieno[2,3-b]quinoline-2-carboxylic acid amide]	1.2
CC1(C)CCc2c(nc3sc(C(N)=O)c(N)c3c2-c2ccc(Cl)o2)C1 [Compound 7, 3-Amino-4-(5-chloro-furan-2-yl)-7,7-dimethyl-5,6,7,8-tetrahydro-thieno[2,3-b]quinoline-2-carboxylic acid amide]	1.6
CC1(C)CCCc2c1nc1sc(C(N)=O)c(N)c1c2-c1ccc(Cl)o1 [Compound 8, 3-Amino-4-(5-chloro-furan-2-yl)-8,8-dimethyl-5,6,7,8-tetrahydro-thieno[2,3-b]quinoline-2-carboxylic acid amide]	4.7
CC1(C)CCc2c1nc1sc(C(N)=O)c(N)c1c2-c1ccc(Cl)o1 [Compound 9, 3-Amino-4-(5-chloro-furan-2-yl)-7,7-dimethyl-6,7-dihydro-5H-1-thia-8-aza-s-indacene-2-carboxylic acid amide]	2.4
CC1(C)CCc2c(nc3sc(C(N)=O)c(N)c3c2-c2ccco2)C1 [Compound 10, 3-Amino-4-furan-2-yl-7,7-dimethyl-5,6,7,8-tetrahydro-thieno[2,3-b]quinoline-2-carboxylic acid amide]	1
CC1(C)CCc2c(nc3sc(C(N)=O)c(N)c3c2-c2ccc(Cl)c(Cl)c2)C1 [Compound 11, 3-Amino-4-(3,4-dichloro-phenyl)-7,7-dimethyl-5,6,7,8-tetrahydro-thieno[2,3-b]quinoline-2-carboxylic acid amide]	23
CC1CC(C)(C)Cc2nc3sc(C(N)=O)c(N)c3c(-c3ccc(Cl)o3)c21 (stereo not drawn) [Compound 12, 3-Amino-4-(5-chloro-furan-2-yl)-5,7,7-trimethyl-5,6,7,8-tetrahydro-thieno[2,3-b]quinoline-2-carboxylic acid amide]	5
NC(=O)c1sc2nc3c(c(-c4ccc(Cl)o4)c2c1N)CCCC3c1ccccc1 (stereo not drawn) [Compound 13, 3-Amino-4-(5-chloro-furan-2-yl)-8-phenyl-5,6,7,8-tetrahydro-thieno[2,3-b]quinoline-2-carboxylic acid amide]	31
CC1(C)C/C(=C\c2cccc(Cl)c2F)c2nc3sc(C(N)=O)c(N)c3c(-c3cccc(Cl)c3F)c2C1 [Compound 14, 3-Amino-8-(3-chloro-2-fluoro-benzylidene)-4-(3-chloro-2-fluoro-phenyl)-6,6-dimethyl-5,6,7,8-tetrahydro-thieno[2,3-b]quinoline-2-carboxylic acid amide]	5020
CC1(C)CCc2c1nc1sc(C(N)=O)c(N)c1c2-c1ccco1 [Compound 15, 3-Amino-4-furan-2-yl-7,7-dimethyl-6,7-dihydro-5H-1-thia-8-aza-s-indacene-2-carboxylic acid amide]	2.5
CC1CC(C)(C)Cc2nc3sc(C(N)=O)c(N)c3c(-c3ccco3)c21 (stereo not drawn) [Compound 16, 3-Amino-4-furan-2-yl-5,7,7-trimethyl-5,6,7,8-tetrahydro-thieno[2,3-b]quinoline-2-carboxylic acid amide]	4.6
CC1(C)CCc2c1nc1sc(C(N)=O)c(N)c1c2-c1ccoc1 [Compound 17, 3-Amino-4-furan-3-yl-7,7-dimethyl-6,7-dihydro-5H-1-thia-8-aza-s-indacene-2-carboxylic acid amide]	1.1
CC1(C)CCc2c1nc1sc(C(N)=O)c(N)c1c2-c1ccsc1 [Compound 18, 3-Amino-7,7-dimethyl-4-thiophen-3-yl-6,7-dihydro-5H-1-thia-8-aza-s-indacene-2-carboxylic acid amide]	0.9
CC1(C)CCc2c1nc1sc(C(N)=O)c(N)c1c2C1CC1 [Compound 19, 3-Amino-4-cyclopropyl-7,7-dimethyl-6,7-dihydro-5H-1-thia-8-aza-s-indacene-2-carboxylic acid amide]	1.1

Next, values leading:

IC50 [µM]	SMILES
2.2	CC1(C)CCc2nc3sc(C(N)=O)c(N)c3c(-c3ccsc3)c2C1 [Compound 20, 3-Amino-6,6-dimethyl-4-thiophen-3-yl-5,6,7,8-tetrahydro-thieno[2,3-b] quinoline-2-carboxylic acid amide]
2	CC1(C)CCc2nc3sc(C(N)=O)c(N)c3c(-c3ccoc3)c2C1 [Compound 21, 3-Amino-4-furan-3-yl-6,6-dimethyl-5,6,7,8-tetrahydro-thieno[2,3-b]quinoline-2-carboxylic acid amide]
6	CC1(C)C/C(=C\c2ccoc2)c2nc3sc(C(N)=O)c(N)c3c(-c3ccoc3)c2C1 [Compound 22, 3-Amino-4-furan-3-yl-8-furan-3-ylmethylene-6,6-dimethyl-5,6,7,8-tetrahydro-thieno[2,3-b]quinoline-2-carboxylic acid amide]
2	CC1(C)CCc2c1nc1sc(C(N)=O)c(N)c1c2-c1nccs1 [Compound 23, 3-Amino-7,7-dimethyl-4-thiazol-2-yl-6,7-dihydro-5H-1-thia-8-aza-s-indacene-2-carboxylic acid amide]
1.4	CC1(C)CCc2c1nc1sc(C(N)=O)c(N)c1c2-c1ccc(Cl)s1 [Compound 24, 3-Amino-4-(5-chloro-thiophen-2-yl)-7,7-dimethyl-6,7-dihydro-5H-1-thia-8-aza-s-indacene-2-carboxylic acid amide]
0.8	CC1(C)CCc2c1nc1sc(C(N)=O)c(N)c1c2-c1cc(Br)cs1 [Compound 25, 3-Amino-4-(4-bromo-thiophen-2-yl)-7,7-dimethyl-6,7-dihydro-5H-1-thia-8-aza-s-indacene-2-carboxylic acid amide]
1	CCC(C)c1c2c(nc3sc(C(N)=O)c(N)c13)C(C)(C)CC2 (stereo not drawn) [Compound 26, 3-Amino-4-sec-butyl-7,7-dimethyl-6,7-dihydro-5H-1-thia-8-aza-s-indacene-2-carboxylic acid amide]
1.5	CC1(C)CCc2c1nc1sc(C(N)=O)c(N)c1c2-c1ccc(Br)s1 [Compound 27, 3-Amino-4-(5-bromo-thiophen-2-yl)-7,7-dimethyl-6,7-dihydro-5H-1-thia-8-aza-s-indacene-2-carboxylic acid amide]
0.4	CC1(C)CCc2c1nc1sc(C(N)=O)c(N)c1c2-c1cncs1 [Compound 28, 3-Amino-7,7-dimethyl-4-thiazol-5-yl-6,7-dihydro-5H-1-thia-8-aza-s-indacene-2-carboxylic acid amide]
0.7	Cn1cc(-c2c3c(nc4sc(C(N)=O)c(N)c24)C(C)(C)CC3)cn1 [Compound 29, 3-Amino-7,7-dimethyl-4-(1-methyl-1H-pyrazol-4-yl)-6,7-dihydro-5H-1-thia-8-aza-s-indacene-2-carboxylic acid amide]
3.4	CC1(C)CCc2c1nc1sc(C(N)=O)c(N)c1c2-c1cscn1 [Compound 30, 3-Amino-7,7-dimethyl-4-thiazol-4-yl-6,7-dihydro-5H-1-thia-8-aza-s-indacene-2-carboxylic acid amide]
3.5	CC1(C)CCc2c1nc1sc(C(N)=O)c(N)c1c2-c1cocn1 [Compound 31, 3-Amino-7,7-dimethyl-4-oxazol-4-yl-6,7-dihydro-5H-1-thia-8-aza-s-indacene-2-carboxylic acid amide]
3.8	Cc1csc(-c2c3c(nc4sc(C(N)=O)c(N)c24)C(C)(C)CC3)n1 [Compound 32, 3-Amino-7,7-dimethyl-4-(4-methyl-thiazol-2-yl)-6,7-dihydro-5H-1-thia-8-aza-s-indacene-2-carboxylic acid amide]
1.1	CC1(C)CCc2nc3sc(C(N)=O)c(N)c3c(-c3cncs3)c2C1 [Compound 33, 3-Amino-6,6-dimethyl-4-thiazol-5-yl-5,6,7,8-tetrahydro-thieno[2,3-b]quinoline-2-carboxylic acid amide]
